Data taken from patent publication US12545643B2, “3,5-diaminobenzoic acid compound, and Pin1 inhibitor and therapeutic agent for inflammatory diseases using same” (Amenis Bioscience, Inc., priority 2020, dated 2026).

How the values were obtained:
Pin1 [1] = biological target: T1, Pin1 (Homo sapiens, UniProt Q13526); assay: Cell-based assay of Pin1 inhibition (AMPK phosphorylation level as index, Western blot); parameters: endogenous in cells; host or cells: 293T cells; key: +++: a higher level of AMPK phosphorylation is promoted, as compared with C1; ++: a similar level of AMPK phosphorylation is promoted, as compared with C1; +: a lower level of AMPK phosphorylation is promoted, as compared with C1; −: no or almost no promotion is found in AMPK phosphorylation; settings: 293T cells, compound at 50 μM, 10 mM 2-DG, pAMPK level compared with known Pin1 inhibitor C1
T1 sequence (Q13526 whole entry): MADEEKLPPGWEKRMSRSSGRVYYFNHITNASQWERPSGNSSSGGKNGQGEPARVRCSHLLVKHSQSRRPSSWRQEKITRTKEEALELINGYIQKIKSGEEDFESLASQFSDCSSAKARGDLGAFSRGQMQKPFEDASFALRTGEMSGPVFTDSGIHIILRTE
Protocol: To evaluate the inhibitory activity of each compound synthesized in Example 1 against the function of Pin1, a cell-based assay was performed according to the method previously developed by the inventors (Yusuke Nakatsu et al., Journal of Biological Chemistry, 2015, Vol. 290, No. 40, pp. 24255-24266), in which the phosphorylation level of AMPK (AMP-activated protein kinase), a protein whose phosphorylation is suppressed by Pin1, was examined as an index.
Briefly, 293T cells were plated on a collagen-coated 24-well plate. Forty-eight hours later, each compound synthesized in the preceding example (at 50 μM) was added to the plate, and the plate was left to stand in an incubator for 30 minutes. Subsequently, 10 mM 2-DG was added to the plate, and one hour later, each sample was collected with a buffer containing mercaptoethanol and SDS.
SDS-PAGE and blotting were performed, and blocking was then performed with 3% BSA for 1 hour, according to conventional protocols. Subsequently, a pAMPK antibody (Cell Signaling; diluted 1:2000 in Can Get Signal Solution 1, Toyobo) as a primary antibody, and an HRP-linked anti rabbit IgG (GE Healthcare; diluted 1:4000 in Can Get Signal Solution 2, Toyobo) as a secondary antibody were allowed to react at ambient temperature for 1 hour prior to detection.
The inhibitory activity against the function of Pin1 was evaluated as indicated below by comparing the inhibition levels between each compound and a known Pin1 inhibitor, C1 ((R)-2-(5-(4-methoxyphenyl)-2-methylfuran-3-carboxamido)-3-(naphthalene-6-yl) propanoic acid):
(+++): a higher level of AMPK phosphorylation is promoted, as compared with C1;
(++): a similar level of AMPK phosphorylation is promoted, as compared with C1;
(+): a lower level of AMPK phosphorylation is promoted, as compared with C1;
(−): no or almost no promotion is found in AMPK phosphorylation.

Pin1 [2] = biological target: T1, Pin1; assay: Cell-free assay of peptidylprolyl isomerase activity (absorbance at 330 nm, substrate Suc-Ala-Glu-Pro-Phe-pNA); type: biochemical; settings: compound 10 μM, Pin1 5 nM, substrate peptide 60 μM, 10° C.; read-out: Pin1 inhibition activity Cell-free assay (inhibition ratio)
Protocol: For some compounds synthesized in Example 1, the inhibitory activity against the function of Pin1 was measured by a cell-free assay based on the method by Janowski et al. (AnalyticalBiochemistry, 1997, Vol. 252, Issue 2, pp. 299-307) because there is an assay measuring peptidylprolylisomerase activity without cells (cell-free).
Briefly, an assay buffer (containing 35 mM HEPES, pH 7.8, 50 μM DTT and 0.0025% NP40) was equilibrated to 10° C. in a quartz cell with stirring function. To this solution was added the compound dissolved in DMSO (10 μM) and then UV spectrum of the resulting solution was immediately measured. Then Pin1 (final concentration of 5 nM) was added to the solution. The reaction was initiated by adding a substrate peptide (Suc-Ala-Glu-Pro-Phe-pNA) dissolved in 0.5 M LiCl solution in trifluoroethanol (final concentration of 60 μM). After reaction was initiated, the change of absorbance at 330 nm was measured for 5 minutes. The resultant reaction curve was fitted to a first order decay model to calculate the reaction rate. The catalytic reaction rate was calculated by subtracting the background rate from the reaction rate. The inhibition ratio (%) was calculated from the catalytic reaction rates in the presence and absence of the compound. The higher inhibition ratio means the higher inhibitory activity against Pin1 function.

SMILES	Pin1 inhibition activity Cell-based assay (Pin1 [1])	inhibition at 10 µM (Pin1 [2]) [%]
COC(=O)c1cc(NC(=O)c2ccc3ccccc3c2)cc(NC(=O)n2c3ccccc3c3ccccc32)c1 [Compound H-591]	+++ (Hydrolysis causes conversion to H-594)	
O=C(O)c1cc(NC(=O)c2ccc3ccccc3c2)cc(NC(=O)n2c3ccccc3c3ccccc32)c1 [Compound H-594]	+++	
COC(=O)c1cc(NC(=O)Nc2cccc3ccccc23)cc(NC(=O)c2ccc3ccccc3c2)c1 [Compound H-609]	++ to +++ (Hydrolysis causes conversion to H-613)	
O=C(Nc1cc(NC(=O)c2ccc3ccccc3c2)cc(C(=O)O)c1)Nc1cccc2ccccc12 [Compound H-613]	+ to ++	38
COC(=O)c1cc(NC(=O)c2ccccc2)cc(NC(=O)n2c3ccccc3c3ccccc32)c1 [Compound H-679]	++ (Hydrolysis causes conversion to H-681)	
O=C(O)c1cc(NC(=O)c2ccccc2)cc(NC(=O)n2c3ccccc3c3ccccc32)c1 [Compound H-681]	++	
O=C(O)c1cc(NC(=O)c2cccnc2)cc(NC(=O)n2c3ccccc3c3ccccc32)c1 [Compound H-682]	+	
COC(=O)c1cc(NC(=O)c2ccc(NC(C)=O)cc2)cc(NC(=O)n2c3ccccc3c3ccccc32)c1 [Compound H-687]	− (Hydrolysis causes conversion to H-694)	
COC(=O)c1cc(NC(=O)c2ccc3c(c2)OCO3)cc(NC(=O)n2c3ccccc3c3ccccc32)c1 [Compound H-690]	− (Hydrolysis causes conversion to H-695)	
O=C(O)c1cc(NC(=O)c2ccc3c(c2)OCCO3)cc(NC(=O)n2c3ccccc3c3ccccc32)c1 [Compound H-692]	+++	80 to 94
CC(=O)Nc1ccc(C(=O)Nc2cc(NC(=O)n3c4ccccc4c4ccccc43)cc(C(=O)O)c2)cc1 [Compound H-694]	++	69
O=C(O)c1cc(NC(=O)c2ccc3c(c2)OCO3)cc(NC(=O)n2c3ccccc3c3ccccc32)c1 [Compound H-695]	+++	
COC(=O)c1cc(NC(=O)c2ccc(OC(C)=O)cc2)cc(NC(=O)n2c3ccccc3c3ccccc32)c1 [Compound H-696]	++ (Hydrolysis causes conversion to H-697)	
O=C(O)c1cc(NC(=O)c2ccc(O)cc2)cc(NC(=O)n2c3ccccc3c3ccccc32)c1 [Compound H-697]	+	
COC(=O)c1cc(NC(=O)c2cnccn2)cc(NC(=O)n2c3ccccc3c3ccccc32)c1 [Compound H-699]	++ (Hydrolysis causes conversion to H-700)	
O=C(O)c1cc(NC(=O)c2cnccn2)cc(NC(=O)n2c3ccccc3c3ccccc32)c1 [Compound H-700]	++	
COC(=O)c1cc(NC(=O)c2ccc3ccccc3c2)cc(NC(=O)N(c2ccccc2)c2ccccc2)c1 [Compound H-728]	+ (Hydrolysis causes conversion to H-732)	
COC(=O)c1cc(NC(=O)c2ccc3ccccc3n2)cc(NC(=O)N(c2ccccc2)c2ccccc2)c1 [Compound H-729]	++ (Hydrolysis causes conversion to H-733)	
COC(=O)c1cc(NC(=O)c2ccc3c(c2)OCCO3)cc(NC(=O)N(c2ccccc2)c2ccccc2)c1 [Compound H-730]	++ (Hydrolysis causes conversion to H-734)	
COC(=O)c1cc(NC(=O)c2cnc3ccccc3n2)cc(NC(=O)N(c2ccccc2)c2ccccc2)c1 [Compound H-731]	+++ (Hydrolysis causes conversion to H-735)	

SMILES	Pin1 inhibition activity Cell-based assay (Pin1 [1])	inhibition at 10 µM (Pin1 [2]) [%]
O=C(O)c1cc(NC(=O)c2ccc3ccccc3c2)cc(NC(=O)N(c2ccccc2)c2ccccc2)c1 [Compound H-732]	+	
O=C(O)c1cc(NC(=O)c2ccc3ccccc3n2)cc(NC(=O)N(c2ccccc2)c2ccccc2)c1 [Compound H-733]	−	61
O=C(O)c1cc(NC(=O)c2ccc3c(c2)OCCO3)cc(NC(=O)N(c2ccccc2)c2ccccc2)c1 [Compound H-734]	−	82
O=C(O)c1cc(NC(=O)c2cnc3ccccc3n2)cc(NC(=O)N(c2ccccc2)c2ccccc2)c1 [Compound H-735]	+	
COC(=O)c1cc(NC(=O)Cn2c3ccccc3c3ccccc32)cc(NC(=O)c2ccc3ccccc3c2)c1 [Compound H-744]	+ (Hydrolysis causes conversion to H-745)	
O=C(Cn1c2ccccc2c2ccccc21)Nc1cc(NC(=O)c2ccc3ccccc3c2)cc(C(=O)O)c1 [Compound H-745]	−	88 to 95
COC(=O)c1cc(NC(=O)Cn2c3ccccc3c3ccccc32)cc(NC(=O)c2ccc3ccccc3n2)c1 [Compound H-746]	− (Hydrolysis causes conversion to H-747)	
O=C(Cn1c2ccccc2c2ccccc21)Nc1cc(NC(=O)c2ccc3ccccc3n2)cc(C(=O)O)c1 [Compound H-747]	++	
COC(=O)c1cc(NC(=O)Cn2c3ccccc3c3ccccc32)cc(NC(=O)c2ccc3c(c2)OCCO3)c1 [Compound H-748]	++ (Hydrolysis causes conversion to H-749)	
O=C(Cn1c2ccccc2c2ccccc21)Nc1cc(NC(=O)c2ccc3c(c2)OCCO3)cc(C(=O)O)c1 [Compound H-749]		53
COC(=O)c1cc(NC(=O)COc2ccccc2)cc(NC(=O)n2c3ccccc3c3ccccc32)c1 [Compound H-758]	− (Hydrolysis causes conversion to H-759)	
O=C(COc1ccccc1)Nc1cc(NC(=O)n2c3ccccc3c3ccccc32)cc(C(=O)O)c1 [Compound H-759]	−	11
COC(=O)c1cc(NC(=O)COc2ccc3ccccc3c2)cc(NC(=O)n2c3ccccc3c3ccccc32)c1 [Compound H-760]	+ (Hydrolysis causes conversion to H-761)	
O=C(COc1ccc2ccccc2c1)Nc1cc(NC(=O)n2c3ccccc3c3ccccc32)cc(C(=O)O)c1 [Compound H-761]	−	70
COC(=O)c1cc(NC(=O)COc2ccc3ccccc3n2)cc(NC(=O)n2c3ccccc3c3ccccc32)c1 [Compound H-764]	− (Hydrolysis causes conversion to H-765)	
O=C(COc1ccc2ccccc2n1)Nc1cc(NC(=O)n2c3ccccc3c3ccccc32)cc(C(=O)O)c1 [Compound H-765]	−	42.8
COC(=O)c1cc(NC(=O)CNC(=O)c2ccccc2)cc(NC(=O)n2c3ccccc3c3ccccc32)c1 [Compound H-766]	+ (Hydrolysis causes conversion to H-767)	
COC(=O)c1cc(NC(=O)CNC(=O)OCc2ccccc2)cc(NC(=O)n2c3ccccc3c3ccccc32)c1 [Compound H-768]	− (Hydrolysis causes conversion to H-769)	
O=C(CN(c1ccccc1)c1ccccc1)Nc1cc(NC(=O)c2ccc3c(c2)OCCO3)cc(C(=O)O)c1 [Compound H-823]		4.2
O=C(CN(c1ccccc1)c1ccccc1)Nc1cc(NC(=O)c2ccccc2)cc(C(=O)O)c1 [Compound H-825]		19.9
